The supplement of paper PMC5908809

Assays:
[1] = test system: normal NK cells expanded with K562-aAPC; assay: percent inhibition of viability; higher = more inhibition; details: 72 h, IL-2 2.5 ng/mL
Method: (§1)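 Drug sensitivity and resistance testing on K562-aAPC-expanded normal NK cells: 5 concentrations (10-fold steps over a 10,000-fold range), 72 h at 37 °C, viability by CellTiter-Glo normalised to DMSO and benzethonium chloride controls; DSS from the fitted curve.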

DERL-7 (IL-2 2.5 ng/mL) [2] = assay: as above; details: 72 h
IMC-1 (IL-2 20 ng/mL) [3] = assay: as above; details: 72 h
KAI3 (IL-2 2.5 ng/mL) [4] = assay: as above; details: 72 h
KHYG-1 (IL-2 2.5 ng/mL) [5] = assay: as above; details: 72 h
NK-92 (IL-2 2.5 ng/mL) [6] = assay: as above; details: 72 h
NK-YS (IL-2 2.5 ng/mL) [7] = assay: as above; details: 72 h
NKL (IL-2 2.5 ng/mL) [8] = assay: as above; details: 72 h
SNK-6 (IL-2 2.5 ng/mL) [9] = assay: as above; details: 72 h
YT (IL-2 2.5 ng/mL) [10] = assay: as above; details: 72 h
[11] = test system: normal primary NK cells, pool 1 (3 donors) (IL-2 2.5 ng/mL); assay: as above; details: 72 h
[12] = test system: normal primary NK cells, pool 1 (3 donors), resting (IL-2 0 ng/mL); assay: as above; details: 72 h
[13] = test system: normal primary NK cells, pool 2 (3 donors) (IL-2 2.5 ng/mL); assay: as above; details: 72 h
[14] = test system: normal primary NK cells, pool 3 (3 donors) (IL-2 2.5 ng/mL); assay: as above; details: 72 h
[15] = test system: normal NK cells expanded with K562-aAPC; assay: drug sensitivity score (DSS) (DSS units); higher = more sensitive; extreme values may be limits of the assay; details: 72 h; IL-2 2.5 ng/mL
Method: as §1

DERL-7 (IL-2 2.5 ng/mL) [16] = assay: as above; details: 72 h
IMC-1 (IL-2 20 ng/mL) [17] = assay: as above; details: 72 h
KAI3 (IL-2 2.5 ng/mL) [18] = assay: as above; details: 72 h
KHYG-1 (IL-2 2.5 ng/mL) [19] = assay: as above; details: 72 h
NK-92 (IL-2 2.5 ng/mL) [20] = assay: as above; details: 72 h
NK-YS (IL-2 2.5 ng/mL) [21] = assay: as above; details: 72 h
NKL (IL-2 2.5 ng/mL) [22] = assay: as above; details: 72 h
SNK-6 (IL-2 2.5 ng/mL) [23] = assay: as above; details: 72 h
YT (IL-2 2.5 ng/mL) [24] = assay: as above; details: 72 h
[25] = test system: normal primary NK cells, pool 1 (3 donors) (IL-2 2.5 ng/mL); assay: as above; details: 72 h
[26] = test system: normal primary NK cells, pool 1 (3 donors), resting (IL-2 0 ng/mL); assay: as above; details: 72 h
[27] = test system: normal primary NK cells, pool 2 (3 donors) (IL-2 2.5 ng/mL); assay: as above; details: 72 h
[28] = test system: normal primary NK cells, pool 3 (3 donors) (IL-2 2.5 ng/mL); assay: as above; details: 72 h

Cn1c(=O)c(F)c(Nc2ccc(I)cc2F)c2c(=O)n(C[C@@H](O)CO)cnc21 [TAK-733] (max concentration tested 1000 nM)
percent inhibition of viability [%]
Details	0.1 nM	1 nM	10 nM	100 nM	1000 nM
DERL-7 (IL-2 2.5 ng/mL) [2]	3.05	13.4	23	41.5	47.2
IMC-1 (IL-2 20 ng/mL) [3]	-1.32	1.37	0.58	3.83	18.9
KAI3 (IL-2 2.5 ng/mL) [4]	2.03	4.38	17.2	23.1	29.4
KHYG-1 (IL-2 2.5 ng/mL) [5]	4.66	9.31	20.6	48.8	64.9
NK-92 (IL-2 2.5 ng/mL) [6]	3	0.98	-25.3	-5.54	19.1
NK-YS (IL-2 2.5 ng/mL) [7]	-2.42	2.48	3.61	10.7	25.6
NKL (IL-2 2.5 ng/mL) [8]	0.9	12	40.6	60.1	81.3
SNK-6 (IL-2 2.5 ng/mL) [9]	6	0.96	-6.2	3.19	-10.3
YT (IL-2 2.5 ng/mL) [10]	-3.29	0.91	1.73	6.99	14.3
[1]	-0.54	1.65	5.46	3.7	18.7
[11]	-3.53	3.59	5.44	11.3	7.77
[12]	-1.91	4.44	-3.15	-6.45	-3.7
[13]	-4.31	-4.06	11.2	17	13.8
[14]	-10.4	-14.4	-11.3	2.73	8.36

Details	drug sensitivity score
DERL-7 (IL-2 2.5 ng/mL) [16]	10.7
IMC-1 (IL-2 20 ng/mL) [17]	1
KAI3 (IL-2 2.5 ng/mL) [18]	5.51
KHYG-1 (IL-2 2.5 ng/mL) [19]	11.7
NK-92 (IL-2 2.5 ng/mL) [20]	0.33
NK-YS (IL-2 2.5 ng/mL) [21]	1.77
NKL (IL-2 2.5 ng/mL) [22]	17.2
SNK-6 (IL-2 2.5 ng/mL) [23]	0
YT (IL-2 2.5 ng/mL) [24]	0.35
[15]	0.89
[25]	0.17
[26]	0
[27]	2.88
[28]	0

C#Cc1cccc(Nc2ncnc3cc4c(cc23)OCCOCCOCCO4)c1 [Icotinib] (max concentration tested 10000 nM)
percent inhibition of viability [%]
Details	1 nM	10 nM	100 nM	1000 nM	10000 nM
DERL-7 (IL-2 2.5 ng/mL) [2]	-3.69	4.28	2.21	-3.13	21.1
IMC-1 (IL-2 20 ng/mL) [3]	-2.8	-2.04	2.45	1.87	17.3
KAI3 (IL-2 2.5 ng/mL) [4]	0.88	-3.16	3.15	-4.22	15.3
KHYG-1 (IL-2 2.5 ng/mL) [5]	2.44	3.1	7.32	5.9	20.9
NK-92 (IL-2 2.5 ng/mL) [6]	-11.7	-6.9	8.46	9.17	60.1
NK-YS (IL-2 2.5 ng/mL) [7]	1.39	-0.84	6.96	1.74	17.6
NKL (IL-2 2.5 ng/mL) [8]	-8.58	1.33	-2.78	-2.73	7.37
SNK-6 (IL-2 2.5 ng/mL) [9]	8.75	4.17	-5.78	8.65	12.1
YT (IL-2 2.5 ng/mL) [10]	-0.54	0.7	2.3	-0.04	20.5
[1]	-2.8	5.15	5.26	7.7	24.2
[11]	2.64	-2.92	-2.29	-5.75	8.93
[12]	3.19	-9.84	4.39	-8.23	35.6
[13]	-5.53	5.07	5.9	-0.93	18.9
[14]	-12.7	-5.94	3.15	-6.39	-5.24

Details	drug sensitivity score
DERL-7 (IL-2 2.5 ng/mL) [16]	0.52
IMC-1 (IL-2 20 ng/mL) [17]	0.61
KAI3 (IL-2 2.5 ng/mL) [18]	0.15
KHYG-1 (IL-2 2.5 ng/mL) [19]	0.85
NK-92 (IL-2 2.5 ng/mL) [20]	4.82
NK-YS (IL-2 2.5 ng/mL) [21]	0.62
NKL (IL-2 2.5 ng/mL) [22]	0
SNK-6 (IL-2 2.5 ng/mL) [23]	0.39
YT (IL-2 2.5 ng/mL) [24]	0.63
[15]	1.38
[25]	0
[26]	1.28
[27]	0.45
[28]	0

COC(=O)c1ccc2c(c1)NC(=O)/C2=C(\Nc1ccc(N(C)C(=O)CN2CCN(C)CC2)cc1)c1ccccc1 [Nintedanib] (max concentration tested 10000 nM)
percent inhibition of viability [%]
Details	1 nM	10 nM	100 nM	1000 nM	10000 nM
DERL-7 (IL-2 2.5 ng/mL) [2]	-8.99	0.01	2.16	38.1	100
IMC-1 (IL-2 20 ng/mL) [3]	-8.95	-2.57	-11.3	-22.3	100
KAI3 (IL-2 2.5 ng/mL) [4]	-8.46	-2.04	1.37	16.4	93.4
KHYG-1 (IL-2 2.5 ng/mL) [5]	-5.39	-3.23	-3.31	20.3	99.6
NK-92 (IL-2 2.5 ng/mL) [6]	-4.93	2.39	-1.05	45.4	99.4
NK-YS (IL-2 2.5 ng/mL) [7]	-4.51	-2.23	-3.24	20.9	99.6
NKL (IL-2 2.5 ng/mL) [8]	-7.94	-17.2	-2.91	56.5	100
SNK-6 (IL-2 2.5 ng/mL) [9]	16.6	7.57	-2.75	-31.8	83.2
YT (IL-2 2.5 ng/mL) [10]	-2.16	-1.03	-3.64	7.19	99.3
[1]	-0.08	-2.82	8.47	31	100
[11]	-7.78	-11	-5.14	38.2	98.9
[12]	-8.23	-15.9	-15.4	47	94.9
[13]	-15.7	-1.56	-14	23.9	99.2
[14]	-18.1	-18.2	-5.82	5.55	99.6

Details	drug sensitivity score
DERL-7 (IL-2 2.5 ng/mL) [16]	10.7
IMC-1 (IL-2 20 ng/mL) [17]	4.45
KAI3 (IL-2 2.5 ng/mL) [18]	7.87
KHYG-1 (IL-2 2.5 ng/mL) [19]	8.76
NK-92 (IL-2 2.5 ng/mL) [20]	11.3
NK-YS (IL-2 2.5 ng/mL) [21]	8.84
NKL (IL-2 2.5 ng/mL) [22]	12.3
SNK-6 (IL-2 2.5 ng/mL) [23]	3.37
YT (IL-2 2.5 ng/mL) [24]	6.61
[15]	9.6
[25]	10.6
[26]	11.1
[27]	9.18
[28]	6.33

O=c1[nH]c(=O)n([C@H]2C[C@H](O)[C@@H](CO)O2)cc1F [Floxuridine] (max concentration tested 10000 nM)
percent inhibition of viability [%]
Details	1 nM	10 nM	100 nM	1000 nM	10000 nM
DERL-7 (IL-2 2.5 ng/mL) [2]	-7.14	68.8	44.1	69.8	94.3
IMC-1 (IL-2 20 ng/mL) [3]	-2.91	-1.68	33.5	96.1	95.4
KAI3 (IL-2 2.5 ng/mL) [4]	-6.31	31.3	63.4	63.7	45.6
KHYG-1 (IL-2 2.5 ng/mL) [5]	0.05	58.9	96.8	99.1	95.1
NK-92 (IL-2 2.5 ng/mL) [6]	-16.2	25.2	72.5	82.6	78.8
NK-YS (IL-2 2.5 ng/mL) [7]	-4.95	13.6	73.5	84	78.7
NKL (IL-2 2.5 ng/mL) [8]	-14.5	15.7	48.8	68.5	82.9
SNK-6 (IL-2 2.5 ng/mL) [9]	15.3	9.27	54	91.8	89.4
YT (IL-2 2.5 ng/mL) [10]	-3.94	0.97	9.92	50.2	57.9
[1]	-4.55	-4.54	25.1	39.5	43.4
[11]	-6.27	-7.98	-5.58	6.75	5.43
[12]	-14.4	-13.5	-18.7	8.19	9.19
[13]	-16.1	-13.4	-7.65	-1.05	8.12
[14]	-14	-7.11	-9.62	-2.43	-3.12

Details	drug sensitivity score
DERL-7 (IL-2 2.5 ng/mL) [16]	25.9
IMC-1 (IL-2 20 ng/mL) [17]	22
KAI3 (IL-2 2.5 ng/mL) [18]	24
KHYG-1 (IL-2 2.5 ng/mL) [19]	37.2
NK-92 (IL-2 2.5 ng/mL) [20]	27.2
NK-YS (IL-2 2.5 ng/mL) [21]	25.9
NKL (IL-2 2.5 ng/mL) [22]	20.2
SNK-6 (IL-2 2.5 ng/mL) [23]	23.3
YT (IL-2 2.5 ng/mL) [24]	10.4
[15]	10.9
[25]	0
[26]	0
[27]	0
[28]	0
